Assay results published in patent US8809532B2, “Aza-ring fused indole and indoline derivatives” (AbbVie Inc., priority 2009, dated 2014).

Tests used:
[1] = system: SK-N-SH human neuroblastoma cells; assay: Serum Deprivation/JC-1 Mitochondrial Membrane Potential (MMP) Assay; assay type: cell-based; settings: for Emax: 18 h, percent maximal JC-1 ratio normalized to the peak value for 10 μM dimebolin, read-out: JC-1 max %; for EC50: JC-1 ratio after ~18 hours serum deprivation, single curve fit to mean data of n=2-3
Procedure: SK—N—SH human neuroblastoma cells obtained from American Type Culture Collection (Rockville, Md.) were maintained in the log phase of growth in Minimal Essential Media (MEM), 10% heat inactivated fetal calf serum and 100 units/mL antibiotic-antimycotic (AA). Cells were cultured and maintained in a humidified incubator at 37° C. under 5% CO2 and 95% air. Cells were trypsinized (0.25%) and subcultured every 3 days and used from 15-18 passages. All cell culture supplies were obtained from Invitrogen (Carlsbad, Calif.).
SK—N—SH cells were plated 2-3 days in advance at a concentration of 50,000 cells/well onto collagen coated black-walled 96 well plates (Becton-Dickinson, Bedford, Mass.) in a total volume of 200 μL. On day of experimental treatment, the media containing serum was aspirated from each well and rinsed once with MEM/1% AA without serum. The cells then were incubated overnight in 100 μL of MEM/1% AA (no serum) with and without dimebolin or novel chemical entities overnight for ˜18 hours. The following day, JC-1 dye (5,5′,6,6′-tetrachloro-1,1′,3,3′-tetraethylbenzimidazolcarbocyanide) was diluted 1:10 into MEM media according to the JC-1 Mitochondrial Membrane Potential Assay Kit: (Cayman Chemical Company, Ann Arbor, Mich.) and then 10 μL of the JC-1 dye solution was added to each well. The plates were centrifuged for 5 minutes at 400×g at room temperature followed by 40 minute incubation at 37° C. The plates were washed twice with 200 μL of provided Assay Buffer followed an addition of 100 μL of Assay Buffer to each well. The plates were read with an excitation and emission of 560 nm and 595 nM for red fluorescence and with an excitation and emission of […] and 535 nM for green fluorescence to determine the final JC-1 value taking the red to green fluorescence ratio. This assay is based on change in mitochondrial membrane potential (MMP) using this lipophilic cationic dye, JC-1, by monitoring the changes in the ratio of red to green fluorescence as the MMP depolarizes. This change in MMP reflects the health of the cell with healthy, viable cells have a high JC-1 ratio and high MMP whereas apoptotic, unhealthy cells have a low JC-1 ratio or low MMP.
For the ability of compounds to reverse the stress due to serum deprivation and increase the JC-1 ratio, the percent maximal intensity in JC-1 ratio was normalized to that induced by the peak value for 10 μM dimebolin and plotted against the compound concentration to calculate EC50 values and to control for plate-to-plate variability. Concentration-response data were analyzed using GraphPad Prism (San Diego, Calif.); the EC50 values were derived from a single curve fit to the mean data of n=2-3, in duplicates.
All compounds were dissolved in dimethyl sulfoxide at 10 mM stock solutions and tested at a concentration that the dimethyl sulfoxide levels never exceeded 1%.

[2] = system: patients with mild-to-moderate Alzheimer's disease; settings: cited from earlier work
[3] = system: primary rat cortical neurons; settings: comparable to that evoked by BDNF; cited from earlier work
[4] = system: primary postnatal (P0) cortical cells; assay: Neurite Outgrowth Assay (Aβ1-42 neuroprotection, high content microscopy); assay type: cell-based, rat; settings: n = 3; for % Attenuation Effect of 5 μM Aβ 1-42: 5 μM Aβ1-42; for Emax: Rattus norvegicus, maximum response relative to 300 nM dimebolin, at the noted concentration, read-out: Maximum Effect (of % 300 nM Dimebolin) at Concentration; for Concentration (nM) at which the Maximum Effect was seen: test compound concentration of the maximum response
Procedure: In addition to PC12 cells, other cellular model systems may also be used. Rat cortical cells can be cultured and prepared for high content microscopy analysis as previously described (Hu, M.; Schurdak, M. E.; et al. High content screen microscopy analysis of Aβ1-42-induced neurite outgrowth reduction in rat primary cortical neurons: Neuroprotective effects of α7 neuronal nicotinic acetylcholine receptor ligands. Brain Res. 2007, 1151, 227-235.). Briefly, cortical cell cultures are plated at density of 5×10^5 cells/mL onto poly-D-lysine coated 96-well plates and maintained in a cell incubator at 37° C. with 5% CO2. Experiments are performed using 6-7 day-old cortical cell cultures by treating with test compounds. In some experiments, the effect of test compounds on reversing Aβ toxicity can also be measured (Hu, M.; Schurdak, M. E.; et al. High content screen microscopy analysis of Aβ1-42-induced neurite outgrowth reduction in rat primary cortical neurons: Neuroprotective effects of α7 neuronal nicotinic acetylcholine receptor ligands. Brain Res. 2007, 1151, 227-235.). For assessment of neuroprotective effects, cells are first pretreated with test compounds for about 5 hours. Medium is then replaced with the medium containing freshly prepared about 5 μM Aβ1-42 peptide in the absence or presence of the test compounds for 3 days. The untreated group contains the same percentage of vehicle (DMSO) as in the treatment groups. Cells are fixed with approximately 4% paraformaldehyde containing 0.5% Hoechst 33342 for about 15 minutes, followed by three washes using PBS (pH 7.4) and blocked with 10% donkey serum in PBS for 1 hour at room temperature. The cells are then incubated overnight at about 4° C. with mouse anti-tubulin monoclonal antibody (1:100) for staining neurons and rabbit anti-GFAP (1:1000) for staining glia. In the next day, cells are incubated with FITC-labeled anti-mouse and TRITC-labeled anti-rabbit antibodies (1:1000) for about 1 hour at room temperature. After fixing and staining the cells, nuclei (360/400 nm excitation and 465/300 nm emission filters), neuron (475/350 nm excitation and 535/400 nm emission filters) and glial cell (535 nm excitation and 610 nm emission filters) images are collected using the ImageExpress Micro automatic fluorescent microscopy system (Molecular Devices, Sunnyvale, Calif.) employing a Nikon 10x Plan Fluor objective and Cool Snap HQ CCD camera. The Neurite Outgrowth module in the MetaMorph Imaging software can be used to automatically count total cell number, number of neuron cells, and the extent of neurite outgrowth.
The neurite outgrowth observed for untreated cells is set to 100% response. Treatment of cells with compounds prior to and concomitantly with Aβ1-42 gave a neuroprotective effect with neurite outgrowth maintained or enhanced relative to untreated cells.

SMILES | EC50 [1] [µM] | Emax [1] [%] | also measured
Cc1ccc2c(c1)c1c(n2CCc2ccc(C)nc2)CCN(C)C1 [dimebolin, 2,3,4,5-tetrahydro-2,8-dimethyl-5-[2-(6-methyl-3-pyridinyl)ethyl]-1H-pyrido[4,3-b]indole] | – | – | clinical course of disease, ADAS-Cog over baseline ([2]; 20 mg three times a day (60 mg/day)): significant improvement; most frequent adverse event ([2]; reported clinical studies): dry mouth; neurite outgrowth [3]: increase neurite outgrowth
Cc1ccc(CCc2cccc3c4c([nH]c23)CCN(C)C4)cn1 [Example 3, 2-methyl-6-[2-(6-methylpyridin-3-yl)ethyl]-2,3,4,5-tetrahydro-1H-pyrido[4,3-b]indole] | 7.64 | 115 | –
CN1CCc2[nH]c3c(C#Cc4cccnc4)cccc3c2C1 [Example 4, 2-methyl-6-(pyridin-3-ylethynyl)-2,3,4,5-tetrahydro-1H-pyrido[4,3-b]indole] | 8.93 | 199 | –
CN1CCc2[nH]c3c(C#Cc4ccncc4)cccc3c2C1 [Example 5, 2-methyl-6-(pyridin-4-ylethynyl)-2,3,4,5-tetrahydro-1H-pyrido[4,3-b]indole] | 4.32 | 103 | –
Cc1ccc(/C=C/c2cccc3c2N[C@@H]2CCN(C)C[C@H]32)cn1 (relative stereo) [Example 9, (cis)-2-methyl-6-[(E)-2-(6-methylpyridin-3-yl)vinyl]-2,3,4,4a,5,9b-hexahydro-1H-pyrido[4,3-b]indole] | 7.53 | 161 | –
Cc1ccc(/C=C/c2cccc3c4c([nH]c23)CCN(C)C4)cn1 [Example 1, 2-methyl-6-[(E)-2-(6-methylpyridin-3-yl)vinyl]-2,3,4,5-tetrahydro-1H-pyrido[4,3-b]indole] | 4.37 | 126 | % Attenuation Effect of 5 μM Aβ 1-42 [4]: 39 (n = 3) %; Emax [4]: 111%; Concentration (nM) at which the Maximum Effect was seen [4]: 30 nM
Cc1ccc(C#Cc2cccc3c4c([nH]c23)CCN(C)C4)cn1 [Example 2, 2-methyl-6-[(6-methylpyridin-3-yl)ethynyl]-2,3,4,5-tetrahydro-1H-pyrido[4,3-b]indole] | 10.8 | 176 | % Attenuation Effect of 5 μM Aβ 1-42 [4]: 57 (n = 3) %; Emax [4]: 129%; Concentration (nM) at which the Maximum Effect was seen [4]: 300 nM

Further lines, with some results ahead:

EC50 [1] [µM] | SMILES | Emax [1] [%] | also measured
5.1 | CCNC(=O)N1CCc2[nH]c3c(/C=C/c4ccc(C)nc4)cccc3c2C1 [Example 11, N-ethyl-6-[(E)-2-(6-methylpyridin-3-yl)vinyl]-1,3,4,5-tetrahydro-2H-pyrido[4,3-b]indole-2-carboxamide] | 186 | –
2.98 | CC(=O)N1CCc2[nH]c3c(/C=C/c4ccc(C)nc4)cccc3c2C1 [Example 8, 2-acetyl-6-[(E)-2-(6-methylpyridin-3-yl)vinyl]-2,3,4,5-tetrahydro-1H-pyrido[4,3-b]indole] | 155 | –
4.72 | Cc1ccc(CCc2cccc3c4c([nH]c23)CCNC4)cn1 [Example 7, 6-[2-(6-methylpyridin-3-yl)ethyl]-2,3,4,5-tetrahydro-1H-pyrido[4,3-b]indole] | 88 | –
3.24 | CCOC(=O)N1CCc2[nH]c3c(/C=C/c4ccc(C)nc4)cccc3c2C1 [Example 10, ethyl 6-[(E)-2-(6-methylpyridin-3-yl)vinyl]-1,3,4,5-tetrahydro-2H-pyrido[4,3-b]indole-2-carboxylate] | 146 | –
4.13 | Cc1ccc(/C=C/c2cccc3c4c([nH]c23)CCNC4)cn1 [Example 6, 6-[(E)-2-(6-methylpyridin-3-yl)vinyl]-2,3,4,5-tetrahydro-1H-pyrido[4,3-b]indole] | 132 | –
